Experimental findings from ChEMBL document CHEMBL3808323, “Synthesis and evaluation of novel benzylphthalazine derivatives as hedgehog signaling pathway inhibitors” (Bioorg Med Chem Lett, 2016) are described below.

The nature of data set [1]: Inhibition of hedgehog signaling (unknown origin) expressed in mouse NIH/3T3 cells by Gli-dual-luciferase reporter assay. The class given is cell-based. Particulars: NIH3T3.
Data set [2] is described as follows: Inhibition of cell proliferation in mouse ptch+/- and p53-/- medulloblastoma cells after 36 hrs by Brdu assay. The data set is classed as functional.
The next data set concerns Medulloblastoma cell. Nature of the data set: Antitumor activity against mouse ptch+/- and p53-/- medulloblastoma cells allografted in athymic nude mouse assessed as tumor growth inhibition at 40 mg/kg, bid administered via oral gavage measured twice per week by microcaliper. The data set is classed as functional, organism-based.
A short description of data set [3]: AUC (0 to infinity) in Sprague-Dawley rat plasma at 2 mg/kg, iv. More on the design: dose 2 mg/kg, time infinity, route intravenous. The data set is classed as ADME, organism-based.
The next data set has as its system Mus musculus. The data set is described as follows: Toxicity in athymic nude mouse allografted with mouse ptch+/- and p53-/- medulloblastoma cells assessed as body weight loss at 40 mg/kg, bid administered via oral gavage. The class given is organism-based. To be noted: in vivo.
A short description of data set [4]: Systemic clearance in Sprague-Dawley rat plasma at 2 mg/kg, iv. The data set is classed as ADME, organism-based.
Data set [5] in a line: Tmax in Sprague-Dawley rat plasma at 10 mg/kg, po. The class given is ADME, organism-based.
Data set [6] is described as follows: AUC (0 to infinity) in Sprague-Dawley rat plasma at 10 mg/kg, po. The class given is ADME, organism-based. Also noted: dose 10 mg/kg, route oral, time infinity.
Data set [7] in a line: Cmax in Sprague-Dawley rat plasma at 10 mg/kg, po. The data set is classed as ADME, organism-based. More on the design: dose 10 mg/kg, route oral.
A short description of data set [8]: Half life in Sprague-Dawley rat plasma at 2 mg/kg, iv. The data set is classed as ADME, organism-based.
Data set [9] in a line: Volume of distribution at steady state in Sprague-Dawley rat plasma at 2 mg/kg, iv. The data set is classed as ADME, organism-based. To be noted: read-out: Vdss.
A short description of data set [10]: Oral bioavailability in Sprague-Dawley rat plasma at 10 mg/kg. The data set is classed as ADME, organism-based.

Activity calls are given as the source filed them. The rule behind the calls is not given here.

With `CC(C)(O)c1ccc(N2CC3(C2)CN(c2nnc(Cc4ccccc4)c4ccccc24)C3)nc1`, in data set [1], the IC50 is above 1000 nM.

The compound `CC(=O)c1ccc(NC2CCN(c3nnc(Cc4ccccc4)c4ccccc34)CC2)nc1` came in with an IC50 in [1] of 2.45 nM. Still for that read-out and setting: the figure for `CCC(O)(CC)c1ccc(NC2CCN(c3nnc(Cc4ccccc4)c4ccccc34)C2)nc1` (racemic) is 2.97 nM; for `CCOC(=O)c1ccc(NC2CCCN(c3nnc(Cc4ccccc4)c4ccccc34)C2)nc1` (racemic) it is above 1000 nM.

Consider `CC(C)(O)c1ccc(N2CCN(c3nnc(Cc4ccccc4)c4ccccc34)CC2)nc1`, for which the figures for the IC50 in data set [2] and in data set [1] were 44.6 nM and 7.1 nM, respectively. In addition, in the data set with Medulloblastoma cell, the TGI entry was “Active”. In the case of `CCOC(=O)c1ccc(N2CCC(Nc3nnc(Cc4ccccc4)c4ccccc34)C2)nc1` (racemic), the IC50 in data set [1] came to 45.7 nM. Same read-out and setting: next, `CC(C)(O)c1ccc(NC2CCN(c3nnc(Cc4ccccc4)c4ccccc34)C2)nc1` (racemic): 3.28 nM. As for `CC(C)(O)c1ccc(N2CCC(Nc3nnc(Cc4ccccc4)c4ccccc34)C2)nc1` (racemic), inhibition in data set [1] was half-maximal at 9.66 nM (IC50). Take `CCOC(=O)c1ccc(NC2CCN(c3nnc(Cc4ccccc4)c4ccccc34)C2)nc1` (racemic): the IC50 in data set [1] is 8.76 nM.

As to `CS(=O)(=O)c1ccc(C(=O)Nc2ccc(Cl)c(-c3ccccn3)c2)c(Cl)c1` [VISMODEGIB], half-maximal inhibition in [1] (IC50) required 2.3 nM. The compound `CCC(O)(CC)c1ccc(N2CCC(Nc3nnc(Cc4ccccc4)c4ccccc34)C2)nc1` (racemic) displayed an IC50 in data set [1] of 3.91 nM. Still for that read-out and setting: the figure for `CC(=O)c1ccc(N(C)C2CCN(c3nnc(Cc4ccccc4)c4ccccc34)CC2)nc1` is above 1000 nM; for `CC(C)(O)c1ccc(NC2CCCN(c3nnc(Cc4ccccc4)c4ccccc34)C2)nc1` (racemic) it is above 1000 nM; for `CN(c1ccc(C(C)(C)O)cn1)C1CCN(c2nnc(Cc3ccccc3)c3ccccc23)CC1` it is 6.66 nM. On the same count and under the same terms, the figure for `CC(C)(O)c1ccc(OC2CN(c3nnc(Cc4ccccc4)c4ccccc34)C2)nc1` is 648 nM. On to `CC(C)(O)c1ccc(NC2CCN(c3nnc(Cc4ccccc4)c4ccccc34)CC2)nc1`, for which the AUC(0-inf) in data set [3] turned out to be 1.64 µM·h; in [6], 3.28 µM·h. For the same compound, in the data set with Mus musculus, the Activity entry is “Non-toxic”. Further, the IC50 in data set [2] came to 38 nM; in data set [1], 0.58 nM. Moreover, the clearance in [4] amounted to 42.1 mL/min/kg. The Tmax in data set [5] was found to be 2 h. Moreover, the peak level in data set [7] (Cmax) was 950 nM. The half-life in data set [8] is 1.03 h. Also, in [9], the Vd worked out at 2.16 L/kg. Further, the TGI entry with Medulloblastoma cell is “Active”. This compound showed a bioavailability in [10] of 40.1%.

`CCC(O)(CC)c1ccc(NC2CCN(c3nnc(Cc4ccccc4)c4ccccc34)CC2)nc1` registered an IC50 in data set [1] of 10.3 nM.
